Patent publication US11111500B2, “Mutated protoporphyrinogen IX oxidase (PPX) genes” (CIBUS US LLC, priority 2010, dated 2021)

Test system: potato protoplasts (protoplast derived microcalli)
Assay: Flumioxazin kill curve with cell suspension and shoot tip-derived protoplasts
Assay type: cell-based
Details: for # Of calli in 3 beads, # / # Of calli in 3 beads, %: Non treated protoplast + PEG; for # Of calli in 3 beads, # / # Of calli in 3 beads, % / # of calli in 3 beads, # / # of calli in 3 beads, %: one month; for # Of calli in 3 beads, % / # of calli in 3 beads, %: % of average control; for # of calli in 3 beads, # / # of calli in 3 beads, %: Stop-GFP + Correcting GRON
Procedure: Herbicide selection experiments were performed to determine the concentration of herbicide necessary to kill protoplast derived microcalli in a defined treatment period. […] The herbicide was suspended in DMSO, with the final concentration of DMSO in the herbicide treatments being 1%. Development of cells was evaluated under the microscope once a week. […] A flumioxazin concentration of 0.032 mM is sufficient to prevent microcallus development from potato protoplasts.
About 200 shoot tips of 2-8 week-old in vitro shoots that have been cultured under a regular day/night regime, or, preferably were kept for two days before protoplast isolation in the dark, shoots may be cut into small pieces with a scalpel in a petri dish with sterile water. After all tips have been cut, the water is replaced with protoplast culture medium, preferably BN (B5 Salts and Vitamins (Phytotechnology Laboratories), glucose 20 g/L, mannitol 70 g/L, alpha naphthalene acetic acid 5 mg/L, additional CaCl2×2H2O 600 mg/L, casein hydrolysate 250 mg/L, cystcine-HCL 10 mg/L, polyvinylpyrrolidone (MW 10,000) 5 g/L. After approximately 1-2 h, the protoplast culture medium is replaced with enzyme solution, for example consisting of medium BN, in which 0.5% (w/v) Cellulase YC and 0.75% (w/v) Maccrozyme R10 (both from Karlan Research Products, Cottonwood, Ariz.), 1 g/L bovine serum albumin, and 1 g/L 2-morpholinoethanesulfonic acid are dissolved. The ratio of the number of shoot tips over the volume of enzyme solution can be between 10 and 16, preferably 13. The dish with shoot tip pieces in enzyme solution is incubated for at 25° C.-30° C., preferably 28° C., in darkness on a shaker set to about 50 rpm. After overnight incubation the protoplast suspension is purified using an iodixanol density gradient (adapted from Optiprep Application Sheet C18; Purification of Intact Plant Protoplasts; Axis-Shield USA, 10 Commerce Way, Norton, Mass. 02776). After the density gradient centrifugation, the band with purified protoplasts is removed together with about 5 mL W5 medium (Frigerio et al., 1998). The protoplast density and yield are determined with a hemocytometer. The protoplasts density is adjusted to 1×10^6/mL in BN medium containing 2 mg/L 2,6-dichlorobenzonitrile (cellulose synthase inhibitor), and the protoplasts are cultured in darkness at 30° C. for about 16 h.
1. Fast growing cell suspensions are used, preferably three days after their last subculture. 1.5 mL settled cell volume is transferred to about 15 ml BN medium, which after 2 h is replaced with enzyme solution. 2. The protoplast purification is followed immediately by the GRON/PEG treatment.
The protoplast suspension is mixed with an equal volume of W5 medium, transferred to a 50 mL centrifuge tube, and centrifuged for 10 min at the lowest setting of a clinical centrifuge (about 50×g). The supernatant is removed and replaced with TM medium (Klaus, S. Markerfreie transplastome Tabakpflanzen (Marker-free transplastomic tobacco plants). PhD Dissertation, 2002, Ludwig-Maximilians-Universitát Múnchen, 109 pp), adjusting the protoplast density to 5×10^6/mL. Aliquots of 100 μL containing 5×10^5 protoplasts each are distributed into 12 mL round bottom centrifuge tubes. GRONs (such as those shown in Table 14) targeted at one or more mutations in one or both of the mitochondrial and plastidal PPX genes are then introduced into the protoplasts using a PEG treatment. To introduce the GRONs into the protoplasts, 12.5 μg GRON dissolved in 25 μL purified water and 125 μL of a polyethylene glycol solution (5 g PEG MW 1500, 638 mg mannitol, 207 mg CaNO3×4H2O and 8.75 mL purified water; pH adjusted to about 9.0) is added. After a 10-30 min incubation on ice, the protoplast-PEG suspension is washed with W5 medium and resuspended in medium BN. The suspension is kept overnight in darkness at room temperature.
One day after the GRON introduction, protoplasts are embedded in calcium alginate. […]

Which results are given for `C#CCN1C(=O)COc2cc(F)c(N3C(=O)C4=C(CCCC4)C3=O)cc21` [flumioxazin]?
concentration sufficient to prevent microcallus development from potato protoplasts: 0.032 mM; # Of calli in 3 beads, # (flumioxazin 0.0156 μM): 40; # Of calli in 3 beads, % (flumioxazin 0.0156 μM): 25%; # Of calli in 3 beads, # (flumioxazin 0.0312 μM): 8; # Of calli in 3 beads, % (flumioxazin 0.0312 μM): 5%; # Of calli in 3 beads, # (flumioxazin 0.0468 μM): 0.0; # Of calli in 3 beads, % (flumioxazin 0.0468 μM): 0.0%; # Of calli in 3 beads, # (flumioxazin 0.0624 μM): 0; # Of calli in 3 beads, % (flumioxazin 0.0624 μM): 0%; # of calli in 3 beads, # (flumioxazin 0.0156 μM): 83; # of calli in 3 beads, % (flumioxazin 0.0156 μM): 39%; # of calli in 3 beads, # (flumioxazin 0.0312 μM): 11; # of calli in 3 beads, % (flumioxazin 0.0312 μM): 4%; # of calli in 3 beads, # (flumioxazin 0.0468 μM): 0.0; # of calli in 3 beads, % (flumioxazin 0.0468 μM): 0.0%; # of calli in 3 beads, # (flumioxazin 0.0624 μM): 0; # of calli in 3 beads, % (flumioxazin 0.0624 μM): 0%; microcalli development after one month (any concentration tested, 1% DMSO): no microcalli developed at any concentration tested; concentration sufficient to kill all cells within a week (initial kill curve): 125 µM
